Assay results taken from patent US5244795A, “Processes for preparing cholesterol lowering compounds” (Merck & Co., Inc., priority 1992, dated 1993).
≈ marks a conversion by molar mass, not a printed value.

What was measured:
Assay type in all cases: cell-based
Candida parapsilosis = test: Microdilution broth assay; conditions: Lodderomyces parapsilosis; strain MY 1010; 35° C., 24 to 48 hours; read-out: MIC (minimum inhibitory concentration)
Protocol: The broad spectrum antifungal activity of the present compounds was further determined by broth dilution methods. The compounds are particularly active towards filamentous fungi and yeasts including Candida albicans and Crypt. neoformans. The sensitivity of filamentous fungi and yeasts was determined using inhibitor dilution assays in microtiter format. A standardized spore suspension for testing the filamentous fungi was prepared by inoculating sterile distilled water with spores such that 1.5-7.5×10^3 colony forming units were added per well. The microtiter wells were filled with 75 μl of yeast nitrogen base containing 1% Dextrose medium (YNB/D) containing compound. Fifty μl of inoculated YNB/D medium was then added to the wells.
The sensitivity of yeasts was determined by inoculating sterile distilled water with aliquots of a 4-hour yeast culture grown in Yeast Morphology (YM) media at 35° C. and diluting in YNB/D to yield a final concentration of 1.5-7.5×10^3 colony forming units/well. Seventy-five μl of inoculated media was added per well. To test the sensitivity of yeast, compound was solubilized in 10 percent aqueous DMSO at 2.56 mg/ml. The compound was diluted serially in YNB/D from 128 to 0.06 μg/ml. The wells were filled with 75 μl of drug containing media. […] Representative of the antifungal activity are the minimum inhibitory concentration and minimum fungicidal concentration data shown below in Table II: […]

Cryptococcus albidus = test: FISP disc diffusion assay; design: key: F: clear zone, fuzzy edges; S: slightly hazy zone (some growth observed throughout zone); H: hazy zone (considerable growth observed throughout zone); V: very hazy zone (zone of inhibition is barely discernable); R: zone displays a ring of resistant growth; no qualifier: clear zone throughout, sharp edges; conditions: 250 μg/ml in CH2Cl2
From the text: (§1) The FISP assay employs disc diffusion susceptibility testing methods to generate a spectrum of activity against a panel of representative yeasts, filamentous fungi and bacteria.
(§2) The yeasts employed in the assay are Saccharomyces cerevisiae, Candida albicans, Candida tropicalis, Candida rugosa, Brettanomyces bruxellensis, Torulospora hansenii, Candida guilliermondi, Candida pseudotropicalis, Torulopsis glabrata, Cryptococcus albidus, Cryptococcus laurentii and Kluyveromyces fragilis.
(§3) For carrying out the assay, seeded assay plates are prepared in the following manner according to the type of assay strain.
(§4) Inocula for yeasts and bacterial strains are prepared from overnight broth cultures then diluted into potato dextrose agar to a final concentration of either 40 percent or 70 percent transmission at 660 nm.
(§5) Assay plates for the yeasts and filamentous fungi are prepared by diluting the inoculum into appropriate molten agar medium, cooled to 45° C. to obtain a final concentration of 4 percent.
(§6) The seeded agar media thus prepared are dispensed into petri dishes for assays (11 ml per dish).
(§7) The samples to be tested for production of antifungal agent are applied to 6.2 mm filter paper discs (25 μl/disc) and air dried at 24° C. When the sample to be tested is crude broth, it may be centrifuged prior to application. The discs bearing the material to be tested are then applied employing sterile conditions to the seeded assay plates. The assay plates are then incubated at either 28° C. or 37° C. for 24 hours. In one of the assays for Bacillus subtilis, the sample is applied to a disc previously impregnated with 4M potassium chloride at 25 μl/disc and then air dried.
(§8) Following incubation, the inhibition zones are measured and recorded. The measurements are made from the extreme edge where growth differs from the background zone. The zones are noted as to appearance as fuzzy edge and clear center, hazy throughout, slightly hazy, very hazy or ringed.
(§9) FISP data is reported as the diameter (in mm.) of the zone of inhibition of growth in agar diffusion assays. The zone is determined by measuring growth that differs from the background lawn. A qualifier is also added to describe the zone quality as listed below: no qualifier: clear zone throughout, sharp edges

Candida pseudotropicalis = test: FISP disc diffusion assay; design: key: F: clear zone, fuzzy edges; S: slightly hazy zone (some growth observed throughout zone); H: hazy zone (considerable growth observed throughout zone); V: very hazy zone (zone of inhibition is barely discernable); R: zone displays a ring of resistant growth; no qualifier: clear zone throughout, sharp edges; conditions: 250 μg/ml in CH2Cl2
From the text: as §1, §2, §3, §4, §5, §6, §7, §8, §9

Torulospora hansenii = test: FISP disc diffusion assay; design: key: F: clear zone, fuzzy edges; S: slightly hazy zone (some growth observed throughout zone); H: hazy zone (considerable growth observed throughout zone); V: very hazy zone (zone of inhibition is barely discernable); R: zone displays a ring of resistant growth; no qualifier: clear zone throughout, sharp edges; conditions: 250 μg/ml in CH2Cl2
From the text: as §1, §2, §3, §4, §5, §6, §7, §8, §9

Candida rugosa = test: FISP disc diffusion assay; design: key: F: clear zone, fuzzy edges; S: slightly hazy zone (some growth observed throughout zone); H: hazy zone (considerable growth observed throughout zone); V: very hazy zone (zone of inhibition is barely discernable); R: zone displays a ring of resistant growth; no qualifier: clear zone throughout, sharp edges; conditions: 250 μg/ml in CH2Cl2
From the text: as §1, §2, §3, §4, §5, §6, §7, §8, §9

Cryptococcus laurentii = test: FISP disc diffusion assay; design: key: F: clear zone, fuzzy edges; S: slightly hazy zone (some growth observed throughout zone); H: hazy zone (considerable growth observed throughout zone); V: very hazy zone (zone of inhibition is barely discernable); R: zone displays a ring of resistant growth; no qualifier: clear zone throughout, sharp edges; conditions: 250 μg/ml in CH2Cl2
From the text: as §1, §2, §3, §4, §5, §6, §7, §8, §9

[1] = test system: Brettanomyces bruxellensis; test: FISP disc diffusion assay; design: key: F: clear zone, fuzzy edges; S: slightly hazy zone (some growth observed throughout zone); H: hazy zone (considerable growth observed throughout zone); V: very hazy zone (zone of inhibition is barely discernable); R: zone displays a ring of resistant growth; no qualifier: clear zone throughout, sharp edges; conditions: 250 μg/ml in CH2Cl2
From the text: as §1, §2, §3, §4, §5, §6, §7, §8, §9

Kluyveromyces fragilis = test: FISP disc diffusion assay; design: key: F: clear zone, fuzzy edges; S: slightly hazy zone (some growth observed throughout zone); H: hazy zone (considerable growth observed throughout zone); V: very hazy zone (zone of inhibition is barely discernable); R: zone displays a ring of resistant growth; no qualifier: clear zone throughout, sharp edges; conditions: 250 μg/ml in CH2Cl2
From the text: as §1, §2, §3, §4, §5, §6, §7, §8, §9

Candida tropicalis = test: FISP disc diffusion assay; design: key: F: clear zone, fuzzy edges; S: slightly hazy zone (some growth observed throughout zone); H: hazy zone (considerable growth observed throughout zone); V: very hazy zone (zone of inhibition is barely discernable); R: zone displays a ring of resistant growth; no qualifier: clear zone throughout, sharp edges; conditions: 250 μg/ml in CH2Cl2
From the text: as §1, §2, §3, §4, §5, §6, §7, §8, §9

Aspergillus niger = test: FISP disc diffusion assay; design: key to zone quality qualifier: F: clear zone, fuzzy edges; S: slightly hazy zone (some growth observed throughout zone); H: hazy zone (considerable growth observed throughout zone); V: very hazy zone (zone of inhibition is barely discernable); R: zone displays a ring of resistant growth; no qualifier: clear zone throughout, sharp edges; conditions: 250 μg/ml in CH2Cl2
From the text: as §1
The filamentous fungi used in the assay were Penicillium sp. Aspergillus niger, Trichoderma sp., Phoma sp., Trichoderma lignorum, Fusarium oxysporum, Ustilago maydis, Ceratocystis ulmi, Alternaria soloni, Verticillium serrae, Botrytis allii, Scopulariopsis communis, Cephalosporium sp., Cercospora beticola, Rhizomucor miehei, Aspergillus flavus and Aspergillus fumigatus.
as §3
Inocula for filamentous fungi are prepared by scraping the surface of stock plates maintained on potato dextrose agar with a moistened sterile dacron swab. The spores and mycelia are then suspended in 10 milliliters of sterile potato dextrose broth and adjusted to 65 percent transmission at 660 nm. […]
Following incubation, the inhibition zones are measured and recorded. […]
FISP data is reported as the diameter (in mm.) of the zone of inhibition of growth in agar diffusion assays. The zone is determined by measuring growth that differs from the background lawn. […]

With CC(/C=C/C=C(\C)C(O)C(C)C(=O)O[C@H]1C[C@H](C)C=C2C=C[C@@]3(C)O[C@@H](O)CC(=O)[C@]3(C)[C@H]21)=C\C=C\C(=O)O (some centres unmarked) [Compound A] the MIC (Candida parapsilosis) was 0.25 µg/mL (≈ 0.462 µM), the zone quality qualifier (Cryptococcus albidus) was “V” and the zone quality qualifier (Candida pseudotropicalis) was “V”. For the same compound, the zone quality qualifier (Torulospora hansenii) was “H”, the zone quality qualifier (Candida rugosa) was “S” and the zone quality qualifier (Cryptococcus laurentii) was “H and V”. For the same compound, the zone quality qualifier [1] was “S”, the zone quality qualifier (Kluyveromyces fragilis) was “V” and the zone quality qualifier (Candida tropicalis) was “S”. The zone quality qualifier (Aspergillus niger) was “H” and the zone of inhibition at 250 µg/mL (Aspergillus niger; Aspergillus niger, read-out: diameter of the zone of inhibition of growth) was 0 mm.
